Measured values reported in US9822103B2, “Inhibitors of lysine methyl transferase” (priority 2013, dated 2017).

Target: recombinant EZH2-641F complex (EZH2 Y641F/EED/SUZ12/RbAp48/AEBP2) (Homo sapiens (Human), UniProt Q15910, Y641F)
Assay: EZH2 Histone Methyl Transferase Assay (scintillation proximity assay)
Format: biochemical
Conditions: 350 nM histone peptide substrate, 500 nM 3H-SAM, 3 hours room temperature
Protocol: EZH2 Histone Methyl Transferase Assay
The effectiveness of compounds of the present invention as inhibitors of histone methyl transferases can be readily tested by assays known to those skilled in the art. For example, in vitro histone methyl transferase assays may be conducted with a relevant purified histone methyl transferase and an appropriate synthetic substrate to determine the inhibitory activity of the compounds. Assays for inhibition of EZH2 by the instant compounds were performed in 384-well plates with reaction mixtures containing 350 nM of histone peptide substrate (ATKAAR-K(Me2)-SAPATGGVKKPHRYRPG-GK(Biotin), 500 nM S-[methyl-^3H]adenosyl-L-methionine (55-85 Ci/mmol), 50 mM Tris-HCl (pH 9.0), 50 mM NaCl, 1 mM dithiothreitol, Tween-20 at 0.01% and fatty-acid free bovine serum albumin at 0.01%, and recombinant EZH2-641F complex (EZH2 Y641F/EED/SUZ12/RbAp48/AEBP2) at 5 nM (>98% purity, BPS Bioscience) or 15 nM (50% purity, in-house). Reaction mixtures were incubated at room temperature for 3 hours, and the reactions were terminated by 0.005% poly-L-lysine solution in 20 mM Tris-HCl (pH 7.5) and 150 mM NaCl. Reaction products were captured by binding to strepavidin-conjugated imaging beads. Incorporation of radioactive methyl group into the histone peptide substrate was determined in Leadseeker (GE Healthcare) by means of scintillation proximity assay. Dose response curves were generated to determine the concentration required to inhibit 50% of methyl transferase activity (EC50). Compounds were dissolved at 10 mM in dimethylsulfoxide (DMSO) and evaluated at eleven concentrations. EC50 values were derived by non-linear regression analysis.

Sequence of recombinant EZH2-641F complex (EZH2 Y641F/EED/SUZ12/RbAp48/AEBP2) (Q15910 whole entry Y641F): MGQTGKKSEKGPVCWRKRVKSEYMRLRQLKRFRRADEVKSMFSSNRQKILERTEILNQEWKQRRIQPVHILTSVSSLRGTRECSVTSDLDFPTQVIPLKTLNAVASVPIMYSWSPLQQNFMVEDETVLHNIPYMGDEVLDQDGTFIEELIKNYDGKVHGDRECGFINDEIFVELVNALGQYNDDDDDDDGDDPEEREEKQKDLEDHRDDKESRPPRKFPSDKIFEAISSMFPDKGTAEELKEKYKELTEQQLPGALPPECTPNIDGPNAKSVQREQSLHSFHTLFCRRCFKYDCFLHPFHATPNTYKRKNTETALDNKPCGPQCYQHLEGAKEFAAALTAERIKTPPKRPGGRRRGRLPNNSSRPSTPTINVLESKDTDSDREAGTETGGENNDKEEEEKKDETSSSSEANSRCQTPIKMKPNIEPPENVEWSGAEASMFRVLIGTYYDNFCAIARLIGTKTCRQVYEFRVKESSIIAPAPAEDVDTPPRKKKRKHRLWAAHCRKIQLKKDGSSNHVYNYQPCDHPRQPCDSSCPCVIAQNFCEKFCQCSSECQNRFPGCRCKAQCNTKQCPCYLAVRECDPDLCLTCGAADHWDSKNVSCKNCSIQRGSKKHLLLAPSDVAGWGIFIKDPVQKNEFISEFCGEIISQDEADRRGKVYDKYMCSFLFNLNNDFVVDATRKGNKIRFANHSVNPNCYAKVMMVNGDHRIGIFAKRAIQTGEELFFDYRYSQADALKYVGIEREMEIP
Sequence of recombinant EZH2-641F complex (EZH2 Y641F/EED/SUZ12/RbAp48/AEBP2) (O75530 whole entry partner): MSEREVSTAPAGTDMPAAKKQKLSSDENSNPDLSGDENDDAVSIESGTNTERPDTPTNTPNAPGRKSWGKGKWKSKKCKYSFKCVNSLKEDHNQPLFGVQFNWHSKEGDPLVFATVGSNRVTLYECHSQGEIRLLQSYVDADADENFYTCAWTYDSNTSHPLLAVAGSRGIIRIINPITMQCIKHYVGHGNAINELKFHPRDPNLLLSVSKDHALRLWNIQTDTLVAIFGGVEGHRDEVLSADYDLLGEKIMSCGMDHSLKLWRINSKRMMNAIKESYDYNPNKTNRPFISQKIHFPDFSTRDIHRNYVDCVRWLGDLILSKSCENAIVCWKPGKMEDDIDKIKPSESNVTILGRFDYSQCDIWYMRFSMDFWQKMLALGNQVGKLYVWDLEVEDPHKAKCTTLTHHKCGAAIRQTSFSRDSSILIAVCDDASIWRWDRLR
Sequence of recombinant EZH2-641F complex (EZH2 Y641F/EED/SUZ12/RbAp48/AEBP2) (Q15022 whole entry partner): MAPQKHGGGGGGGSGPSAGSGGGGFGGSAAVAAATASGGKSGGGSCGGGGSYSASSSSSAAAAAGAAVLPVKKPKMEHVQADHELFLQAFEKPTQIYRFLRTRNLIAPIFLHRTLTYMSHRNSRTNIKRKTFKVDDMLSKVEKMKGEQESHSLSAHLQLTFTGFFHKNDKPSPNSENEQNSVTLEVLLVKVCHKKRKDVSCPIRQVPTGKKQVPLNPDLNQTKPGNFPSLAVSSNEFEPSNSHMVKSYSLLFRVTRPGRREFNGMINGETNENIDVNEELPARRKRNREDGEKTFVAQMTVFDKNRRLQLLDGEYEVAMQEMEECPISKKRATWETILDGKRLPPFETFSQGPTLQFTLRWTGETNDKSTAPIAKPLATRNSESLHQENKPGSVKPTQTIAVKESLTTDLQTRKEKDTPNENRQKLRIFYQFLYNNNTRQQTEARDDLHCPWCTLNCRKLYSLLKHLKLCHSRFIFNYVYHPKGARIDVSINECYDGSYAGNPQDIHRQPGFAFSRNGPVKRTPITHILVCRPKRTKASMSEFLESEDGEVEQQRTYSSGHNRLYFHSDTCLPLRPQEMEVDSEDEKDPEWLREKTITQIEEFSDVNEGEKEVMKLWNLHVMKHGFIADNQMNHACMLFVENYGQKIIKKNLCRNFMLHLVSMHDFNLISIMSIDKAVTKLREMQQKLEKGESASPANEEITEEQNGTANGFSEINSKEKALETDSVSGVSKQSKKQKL
Sequence of recombinant EZH2-641F complex (EZH2 Y641F/EED/SUZ12/RbAp48/AEBP2) (Q09028 whole entry partner): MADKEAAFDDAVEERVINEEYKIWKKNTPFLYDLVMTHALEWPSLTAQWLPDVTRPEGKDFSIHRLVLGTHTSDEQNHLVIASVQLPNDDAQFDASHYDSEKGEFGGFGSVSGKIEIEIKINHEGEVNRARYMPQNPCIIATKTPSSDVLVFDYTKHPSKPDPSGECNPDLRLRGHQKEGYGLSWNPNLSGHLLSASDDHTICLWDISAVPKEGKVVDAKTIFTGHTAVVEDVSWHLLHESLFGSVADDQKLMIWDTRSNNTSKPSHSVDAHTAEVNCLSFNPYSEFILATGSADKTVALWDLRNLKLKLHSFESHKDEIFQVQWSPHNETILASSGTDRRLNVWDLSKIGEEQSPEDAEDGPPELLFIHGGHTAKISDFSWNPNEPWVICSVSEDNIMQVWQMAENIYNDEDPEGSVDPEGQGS
Sequence of recombinant EZH2-641F complex (EZH2 Y641F/EED/SUZ12/RbAp48/AEBP2) (Q6ZN18 whole entry partner): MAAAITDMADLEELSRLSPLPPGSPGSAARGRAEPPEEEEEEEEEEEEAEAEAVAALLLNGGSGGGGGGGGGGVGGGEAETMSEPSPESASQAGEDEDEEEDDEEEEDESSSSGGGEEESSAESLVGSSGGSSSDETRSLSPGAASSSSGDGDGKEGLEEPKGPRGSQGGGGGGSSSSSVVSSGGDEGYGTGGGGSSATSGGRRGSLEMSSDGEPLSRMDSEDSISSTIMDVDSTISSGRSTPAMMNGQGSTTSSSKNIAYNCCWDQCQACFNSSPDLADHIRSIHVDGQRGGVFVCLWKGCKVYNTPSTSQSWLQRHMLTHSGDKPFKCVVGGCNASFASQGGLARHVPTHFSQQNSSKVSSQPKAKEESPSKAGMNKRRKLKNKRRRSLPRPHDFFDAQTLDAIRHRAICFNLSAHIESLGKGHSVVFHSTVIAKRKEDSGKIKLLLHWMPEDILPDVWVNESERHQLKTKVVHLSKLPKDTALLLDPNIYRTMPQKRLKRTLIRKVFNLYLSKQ

In the case of Cc1cc(C)c(CNC(=O)c2cc3c(c(-c4cnc(N5CCNCC5)nc4)c2)OC(C)(C)C3)c(=O)[nH]1 [Example 20, N-((4,6-Dimethyl-2-oxo-1,2-dihydropyridin-3-yl)methyl)-2,2-dimethyl-7-(2-(piperazin-1-yl)pyrimidin-5-yl)-2,3-dihydrobenzofuran-5-carboxamide], the IC50 is reported as < 500 nM.
In the case of Cc1cc(C)c(CNC(=O)c2cc(Cc3ccccc3)c3c(c2)CC(C)(C)O3)c(=O)[nH]1 [Example 21, 7-Benzyl-N-((4,6-dimethyl-2-oxo-1,2-dihydropyridin-3-yl)methyl)-2,2-dimethyl-2,3-dihydrobenzofuran-5-carboxamide], the IC50 is reported as > 1000 nM.
In the case of Cc1cc(C)c(CNC(=O)c2cc(C#N)c3c(c2)CC(C)(C)O3)c(=O)[nH]1 [Example 22, 7-Cyano-N-((4,6-dimethyl-2-oxo-1,2-dihydropyridin-3-yl)methyl)-2,2-dimethyl-2,3-dihydrobenzofuran-5-carboxamide], the IC50 is reported as > 1000 nM.
For CCCc1cc(C)[nH]c(=O)c1CNC(=O)c1cc(Cl)c2c(c1)CC(C)(C)O2 [Example 23, 7-Chloro-2,2-dimethyl-N-((6-methyl-2-oxo-4-propyl-1,2-dihydropyridin-3-yl)methyl)-2,3-dihydrobenzofuran-5-carboxamide], the IC50 was > 1000 nM.
With CCCc1cc(C)[nH]c(=O)c1CNC(=O)c1cc(Br)c2c(c1)CC(C)(C)O2 [Example 24, 7-Bromo-2,2-dimethyl-N-((6-methyl-2-oxo-4-propyl-1,2-dihydropyridin-3-yl)methyl)-2,3-dihydrobenzofuran-5-carboxamide] the IC50 was > 1000 nM.
For COc1ccc(-c2cc(C(=O)NCc3c(C)cc(C)[nH]c3=O)c(C)c3c2OC(C)(C)C3)cn1 [Example 25, N-((4,6-Dimethyl-2-oxo-1,2-dihydropyridin-3-yl)methyl)-7-(6-methoxypyridin-3-yl)-2,2,4-trimethyl-2,3-dihydrobenzofuran-5-carboxamide], the IC50 was 500 to 1000 nM.
With Cc1cc(C)c(CNC(=O)c2cc(-c3ccc(N4CCNCC4)nc3)c3c(c2C)CC(C)(C)O3)c(=O)[nH]1 [Example 26, N-((4,6-Dimethyl-2-oxo-1,2-dihydropyridin-3-yl)methyl)-2,2,4-trimethyl-7-(6-(piperazin-1-yl)pyridin-3-yl)-2,3-dihydrobenzofuran-5-carboxamide] the IC50 was < 500 nM.
For Cc1cc(C)c(CNC(=O)c2cc(-c3ccc(N4CCOCC4)nc3)c3c(c2)C(C)CO3)c(=O)[nH]1 (stereo not drawn) [Example 27, N-((4,6-Dimethyl-2-oxo-1,2-dihydropyridin-3-yl)methyl)-3-methyl-7-(6-morpholinopyridin-3-yl)-2,3-dihydrobenzofuran-5-carboxamide], the IC50 was > 1000 nM.
For Cc1cc(C)c(CNC(=O)c2cc(-c3ccc(CN4CCOCC4)cc3)c3c(c2)C(C)CO3)c(=O)[nH]1 (stereo not drawn) [Example 28, N-((4,6-Dimethyl-2-oxo-1,2-dihydropyridin-3-yl)methyl)-3-methyl-7-(4-(morpholinomethyl)phenyl)-2,3-dihydrobenzofuran-5-carboxamide], the IC50 was > 1000 nM.
For Cc1cc(C)c(CNC(=O)c2cc(-c3ccc(N4CCNCC4)nc3)c3c(c2)C(C)CO3)c(=O)[nH]1 (stereo not drawn) [Example 29, N-((4,6-Dimethyl-2-oxo-1,2-dihydropyridin-3-yl)methyl)-3-methyl-7-(6-(piperazin-1-yl)pyridin-3-yl)-2,3-dihydrobenzofuran-5-carboxamide], the IC50 was > 1000 nM.
COc1ccc(-c2cc(C(=O)NCc3c(C)cc(C)[nH]c3=O)cc3c2OCC3C)cn1 (stereo not drawn) [Example 30, N-((4,6-Dimethyl-2-oxo-1,2-dihydropyridin-3-yl)methyl)-7-(6-methoxypyridin-3-yl)-3-methyl-2,3-dihydrobenzofuran-5-carboxamide] was tested, and the IC50 was > 1000 nM.
For Cc1cc(C)c(CNC(=O)c2cc(Br)c3c(c2)CC(C)O3)c(=O)[nH]1 (stereo not drawn) [Example 31, 7-Bromo-N-((4,6-dimethyl-2-oxo-1,2-dihydropyridin-3-yl)methyl)-2-methyl-2,3-dihydrobenzofuran-5-carboxamide], the IC50 was > 1000 nM.
